Assay results from ChEMBL document CHEMBL1201862, “PubChem BioAssay data set” (2004).
Calls of active or inactive are those of the source.

Tests used:
Type in all cases: functional
Caspase-3 = target: T1, Caspase-3 (Homo sapiens, UniProt P42574); assay: SAR Analysis of small molecule inhibitors of Sentrin-specific proteases (SENPs) using a Caspase-3 Selectivity assay. [Related pubchem assays (depositor defined):AID2540, AID2599, AID434973, AID489001]
T1 sequence (P42574 whole entry): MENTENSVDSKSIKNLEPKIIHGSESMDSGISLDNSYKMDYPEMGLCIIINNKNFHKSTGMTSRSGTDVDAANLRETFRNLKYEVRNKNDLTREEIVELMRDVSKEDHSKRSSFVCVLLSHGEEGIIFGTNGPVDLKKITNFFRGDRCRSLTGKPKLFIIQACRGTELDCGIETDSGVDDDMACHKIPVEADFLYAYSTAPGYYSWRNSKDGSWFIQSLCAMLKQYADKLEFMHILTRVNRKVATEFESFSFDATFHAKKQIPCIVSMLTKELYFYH

[1] = target: T2, Sentrin-specific protease 8 (Homo sapiens, UniProt Q96LD8); assay: SENP8 protease inhibitors, SAR follow-up, biochemical, luminescence (AID 504501)
T2 sequence (Q96LD8 whole entry): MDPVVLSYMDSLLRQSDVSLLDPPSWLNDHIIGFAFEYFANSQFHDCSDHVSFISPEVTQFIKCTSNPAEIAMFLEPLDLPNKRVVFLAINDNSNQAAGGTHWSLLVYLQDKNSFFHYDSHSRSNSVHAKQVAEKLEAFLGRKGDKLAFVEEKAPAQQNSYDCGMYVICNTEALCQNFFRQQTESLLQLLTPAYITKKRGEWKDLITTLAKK

[2] = target: T3, Sentrin-specific protease 7 (Homo sapiens, UniProt Q9BQF6); assay: SENP7 protease inhibitors, SAR follow-up, biochemical, luminescence (AID 504497)
T3 sequence (Q9BQF6 whole entry): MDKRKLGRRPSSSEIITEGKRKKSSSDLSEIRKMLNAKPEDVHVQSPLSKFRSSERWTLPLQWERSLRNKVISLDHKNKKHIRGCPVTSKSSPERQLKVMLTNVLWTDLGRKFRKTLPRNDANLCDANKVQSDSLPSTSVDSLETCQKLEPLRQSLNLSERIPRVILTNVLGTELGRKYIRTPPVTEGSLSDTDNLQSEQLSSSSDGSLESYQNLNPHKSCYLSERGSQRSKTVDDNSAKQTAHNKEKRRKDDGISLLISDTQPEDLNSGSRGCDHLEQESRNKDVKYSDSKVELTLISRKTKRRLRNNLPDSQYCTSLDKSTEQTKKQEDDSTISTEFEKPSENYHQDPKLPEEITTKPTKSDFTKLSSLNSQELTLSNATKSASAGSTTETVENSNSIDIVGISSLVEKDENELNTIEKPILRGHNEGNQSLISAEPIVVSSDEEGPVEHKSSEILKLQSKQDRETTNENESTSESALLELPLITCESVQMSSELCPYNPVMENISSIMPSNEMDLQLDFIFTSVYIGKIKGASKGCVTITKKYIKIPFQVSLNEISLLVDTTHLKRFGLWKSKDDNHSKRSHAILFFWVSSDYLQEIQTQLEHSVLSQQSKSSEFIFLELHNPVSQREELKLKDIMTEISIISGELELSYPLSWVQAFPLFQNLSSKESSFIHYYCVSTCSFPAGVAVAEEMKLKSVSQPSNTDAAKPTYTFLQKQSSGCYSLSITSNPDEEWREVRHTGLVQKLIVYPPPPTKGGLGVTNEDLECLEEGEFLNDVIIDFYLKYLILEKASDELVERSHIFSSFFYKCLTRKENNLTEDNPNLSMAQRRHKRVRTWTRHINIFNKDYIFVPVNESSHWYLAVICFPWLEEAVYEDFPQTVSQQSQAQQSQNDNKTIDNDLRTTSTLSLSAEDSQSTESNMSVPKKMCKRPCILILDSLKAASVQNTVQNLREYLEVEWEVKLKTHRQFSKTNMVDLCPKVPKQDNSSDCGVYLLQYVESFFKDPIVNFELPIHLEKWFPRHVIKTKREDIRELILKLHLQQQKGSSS

[3] = target: T4, Sentrin-specific protease 6 (Homo sapiens, UniProt Q9GZR1); assay: SAR Analysis of small molecule inhibitors of Sentrin-specific protease 6 (SENP6) using a Luminescent assay. [Related pubchem assays (depositor defined):AID2582, AID2599]
T4 sequence (Q9GZR1 whole entry): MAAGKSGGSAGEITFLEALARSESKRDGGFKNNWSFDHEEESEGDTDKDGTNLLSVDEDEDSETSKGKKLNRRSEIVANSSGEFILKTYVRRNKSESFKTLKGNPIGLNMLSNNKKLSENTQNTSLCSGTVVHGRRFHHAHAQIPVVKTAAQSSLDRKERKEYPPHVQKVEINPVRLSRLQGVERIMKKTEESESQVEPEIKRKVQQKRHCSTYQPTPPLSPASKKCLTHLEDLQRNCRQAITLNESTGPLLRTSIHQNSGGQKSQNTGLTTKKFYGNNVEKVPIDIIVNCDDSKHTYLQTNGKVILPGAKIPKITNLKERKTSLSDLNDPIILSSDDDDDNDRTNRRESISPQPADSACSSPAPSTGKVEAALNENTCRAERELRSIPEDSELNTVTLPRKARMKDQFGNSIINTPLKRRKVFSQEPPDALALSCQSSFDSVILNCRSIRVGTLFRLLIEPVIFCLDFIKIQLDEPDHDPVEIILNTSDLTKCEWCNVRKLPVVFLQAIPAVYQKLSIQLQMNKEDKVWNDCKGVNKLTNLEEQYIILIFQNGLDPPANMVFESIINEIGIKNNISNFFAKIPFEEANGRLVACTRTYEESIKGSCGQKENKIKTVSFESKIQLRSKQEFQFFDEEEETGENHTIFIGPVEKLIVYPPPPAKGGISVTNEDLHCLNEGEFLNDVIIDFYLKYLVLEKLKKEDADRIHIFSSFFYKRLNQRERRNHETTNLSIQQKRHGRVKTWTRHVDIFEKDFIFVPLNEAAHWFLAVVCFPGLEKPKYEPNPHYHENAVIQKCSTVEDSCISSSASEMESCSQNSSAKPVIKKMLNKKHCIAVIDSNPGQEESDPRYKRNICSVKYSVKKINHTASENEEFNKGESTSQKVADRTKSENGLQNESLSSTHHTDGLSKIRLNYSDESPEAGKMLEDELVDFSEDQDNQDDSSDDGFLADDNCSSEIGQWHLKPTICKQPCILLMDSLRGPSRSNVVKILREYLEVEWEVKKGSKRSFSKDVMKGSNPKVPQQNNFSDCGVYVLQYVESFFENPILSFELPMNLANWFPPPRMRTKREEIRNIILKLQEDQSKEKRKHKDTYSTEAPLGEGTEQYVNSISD

[4] = target: Vascular endothelial growth factor receptor 2 (Homo sapiens, UniProt P35968)
Aurora kinase B = Aurora kinase B (Homo sapiens, UniProt Q96GD4)
Aurora kinase A = Aurora kinase A (Homo sapiens, UniProt O14965);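 further: value from the Navigating the Kinome kinase panel profiling, panel entry STK6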
Chain of Aurora kinase A (O14965 whole entry): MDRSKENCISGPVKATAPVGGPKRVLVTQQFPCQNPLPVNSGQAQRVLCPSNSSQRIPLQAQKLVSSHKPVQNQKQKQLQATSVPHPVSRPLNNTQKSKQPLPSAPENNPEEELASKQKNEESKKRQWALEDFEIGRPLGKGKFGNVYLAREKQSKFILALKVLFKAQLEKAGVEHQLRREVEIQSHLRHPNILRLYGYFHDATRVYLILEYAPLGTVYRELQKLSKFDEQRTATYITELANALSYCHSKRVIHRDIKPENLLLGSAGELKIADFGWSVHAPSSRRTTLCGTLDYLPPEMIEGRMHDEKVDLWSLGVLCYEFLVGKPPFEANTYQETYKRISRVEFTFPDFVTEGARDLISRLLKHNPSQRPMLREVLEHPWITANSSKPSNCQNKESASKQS

Chain of Aurora kinase B (Q96GD4 whole entry): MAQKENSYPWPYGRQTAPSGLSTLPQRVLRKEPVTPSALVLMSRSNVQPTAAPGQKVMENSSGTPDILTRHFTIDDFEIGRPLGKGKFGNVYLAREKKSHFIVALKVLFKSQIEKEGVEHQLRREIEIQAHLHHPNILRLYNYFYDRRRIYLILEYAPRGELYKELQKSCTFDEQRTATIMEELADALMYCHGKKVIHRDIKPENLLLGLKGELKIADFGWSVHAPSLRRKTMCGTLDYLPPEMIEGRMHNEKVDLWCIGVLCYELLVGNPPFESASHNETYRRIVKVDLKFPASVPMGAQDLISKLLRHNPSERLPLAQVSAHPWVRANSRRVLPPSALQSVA
Chain of Vascular endothelial growth factor receptor 2 (P35968 whole entry): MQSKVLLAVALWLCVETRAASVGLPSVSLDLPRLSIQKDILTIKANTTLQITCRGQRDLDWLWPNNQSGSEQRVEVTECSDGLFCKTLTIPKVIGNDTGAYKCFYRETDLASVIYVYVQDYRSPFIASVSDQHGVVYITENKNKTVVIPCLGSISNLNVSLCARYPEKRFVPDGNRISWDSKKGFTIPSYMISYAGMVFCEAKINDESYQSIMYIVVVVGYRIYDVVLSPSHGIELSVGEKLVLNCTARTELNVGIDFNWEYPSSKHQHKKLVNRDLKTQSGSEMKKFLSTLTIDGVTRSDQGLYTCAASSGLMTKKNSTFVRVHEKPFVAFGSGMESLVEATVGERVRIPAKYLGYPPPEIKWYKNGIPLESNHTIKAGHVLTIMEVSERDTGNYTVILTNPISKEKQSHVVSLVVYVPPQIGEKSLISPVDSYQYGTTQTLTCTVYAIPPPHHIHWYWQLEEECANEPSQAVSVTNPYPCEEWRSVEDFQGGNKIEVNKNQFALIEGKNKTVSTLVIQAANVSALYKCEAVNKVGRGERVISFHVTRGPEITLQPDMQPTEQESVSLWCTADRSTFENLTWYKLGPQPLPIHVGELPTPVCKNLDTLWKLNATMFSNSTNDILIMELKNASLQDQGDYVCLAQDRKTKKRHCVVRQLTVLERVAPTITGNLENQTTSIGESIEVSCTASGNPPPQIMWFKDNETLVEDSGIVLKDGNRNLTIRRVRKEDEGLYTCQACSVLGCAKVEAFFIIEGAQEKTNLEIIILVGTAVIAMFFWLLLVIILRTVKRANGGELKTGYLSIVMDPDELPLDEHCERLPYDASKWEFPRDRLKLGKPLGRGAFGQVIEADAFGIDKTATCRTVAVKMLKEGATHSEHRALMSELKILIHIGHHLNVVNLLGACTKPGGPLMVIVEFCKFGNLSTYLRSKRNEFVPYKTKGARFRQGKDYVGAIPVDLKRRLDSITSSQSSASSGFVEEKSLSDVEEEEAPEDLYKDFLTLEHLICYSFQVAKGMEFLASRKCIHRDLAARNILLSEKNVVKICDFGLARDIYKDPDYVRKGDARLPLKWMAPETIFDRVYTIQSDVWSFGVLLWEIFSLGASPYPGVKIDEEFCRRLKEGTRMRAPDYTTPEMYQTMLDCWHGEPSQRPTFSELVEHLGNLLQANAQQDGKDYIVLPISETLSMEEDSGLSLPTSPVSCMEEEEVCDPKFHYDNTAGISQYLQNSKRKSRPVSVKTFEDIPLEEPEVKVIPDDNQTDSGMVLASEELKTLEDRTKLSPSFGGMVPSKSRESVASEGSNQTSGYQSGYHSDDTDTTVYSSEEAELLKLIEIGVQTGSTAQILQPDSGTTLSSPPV

Row | IC50 (Caspase-3) | IC50 [2] | IC50 [3] | Ki [4] | Ki (Aurora kinase B) | Ki (Aurora kinase A) | SMILES | IC50 [1]
1 | > 99 µM (inactive) | > 99 µM (inactive) | > 99 µM (inactive) | – | – | – | N#Cc1ccc(-c2nc(/C=C/c3ccccc3)no2)cc1 | > 99 µM (inactive)
2 | – | – | – | > 5.01 µM (inactive) | 0.02 µM (active) | 1 µM (active) | NC(=NO)c1cccc(S(=O)(=O)Nc2ccc3c(c2)C(=NO)c2ccccc2-3)c1 | –
3 | – | – | – | 0.00316 µM (active) | 0.00251 µM (active) | 0.501 µM (active) | O=C(Nc1ccc(-n2cnc3ccccc32)cc1)Nc1cccc(C(F)(F)F)c1 | –
